Patent US20210332024A1, “MODULATORS OF PIN1 ACTIVITY AND USES THEREOF” (Yeda Research and Development Co. Ltd., priority 2019, published 2021)
Values joined by “and” are separate entries in the source; they are usually repeats but may differ in a detail not shown here. Identical values can stand only once. Like-named read-outs stand apart in the source and are kept apart here.

Columns and labels:
GST-Pin1 = GST-Pin1 (Homo sapiens, UniProt Q13526); test: Fluorescence polarization (FP) competition assay; format: binding
Sequence of GST-Pin1 (Q13526 whole entry): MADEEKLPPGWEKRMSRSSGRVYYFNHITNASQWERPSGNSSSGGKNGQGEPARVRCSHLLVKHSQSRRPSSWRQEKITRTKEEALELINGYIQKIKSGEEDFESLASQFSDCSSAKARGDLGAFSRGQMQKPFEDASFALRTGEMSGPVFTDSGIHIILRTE
Protocol: Binding affinity to Pin1 was determined using a fluorescence polarization assay to assess competition with an N-terminal fluorescein-labeled peptide (Bth-D-phosThr-Pip-Nal), which was obtained from JPT Peptide Technologies and Proteintech Group. The indicated concentrations of candidate compound were pre-incubated for 12 hours at 4° C. with a solution containing 250 nM glutathione S-transferase (GST)-Pin1, 5 nM of fluorescein-labeled peptide probe, 10 μg/ml bovine serum albumin, 0.01% Tween-20 and 1 mM DTT (dithiothreitol) in a buffer of 10 mM HEPES, 10 mM NaCl and 1% glycerol (pH 7.4). Measurements of FP were performed in black 384-well plates (Corning) using an EnVision™ reader. Apparent Ki values (under the tested conditions) obtained from the FP assay results were derived from the Kenakin Ki equation:
Kenakin Ki=(Lb)(EC50)(Kd)/(Lo)(Ro)+Lb(Ro−Lo+Lb−Kd)
Sittampalam G. S. et al., Eli Lilly & Company and the National Center for Advancing Translational Sciences, 2004].
Covalent labeling of Pin1 was confirmed to translate into enzyme inhibition via a fluorescence polarization (FP) competition assay using a FITC-labeled substrate mimetic peptide inhibitor, as well as a chymotrypsin-coupled PPIase assay, using procedures described in Wei et al. [Nat Med 2015, 21:457-466].
The fluorescent polarization assay was performed in a dose-dependent and time-dependent manner, in order to further characterize the kinetic parameters of Pin1-3 binding to Pin1.

Pin1 in IMR32 cells = target: T1, Pin1 in IMR32 cells (Homo sapiens, UniProt Q13526); test: Live cell competition assay with Pin1-3-DTB pull-down, IMR32 cells; format: cell-based; conditions: IMR32 cells
T1 construct: endogenous in cells; host or cells: IMR32
T1 sequence (Q13526 whole entry): as above
Protocol: The indicated cells were treated with increasing concentrations of either DMSO, Pin1-3, or Pin1-3-AcA for 5 hours. Cells were harvested by scraping and washed twice with PBS before lysis with 50 mM HEPES (pH 7.4), 1 mM EDTA, 10% glycerol, 1 mM TCEP, 150 mM NaCl, 1 mM EDTA, 0.5% NP-40, and protease inhibitor tablet (Roche cat. #4693159001). After clarifying (14,000 rpm for 15 minutes), samples were treated with the indicated concentrations of Pin1-3-DTB at 4° C. for 1 hour. Lysates were then incubated with streptavidin agarose resin (Thermo Scientific, cat. #20349) for 1.5 hour at 4° C. Beads were washed four times with 500 μl of washing buffer (50 mM HEPES (pH 7.5), 10 mM NaCl, 1 mM EDTA, 10% glycerol), then pelleted by centrifugation and dried. The beads were boiled for 5 minutes at 95° C. in 2×LDS+10% β-mercaptoethanol. Proteins of interest were then assessed via Western blotting using the bolt system (Life Technologies).
The indicated cells were plated in 10 cm plates with 2.5 million cells per plate in 6 ml of medium. The day after plating, cells were treated with the indicated concentrations of candidate inhibitor for the indicated time points. The cells were then washed two times with cold phosphate buffer saline (1 ml per 10 cm plate) and collected by scraping with a cell scraper. […]

[1] = Pharmacokinetics, oral administration; format: in vivo, Male C57Bl/6J mice; conditions: for AUC(0-inf): read-out: AUCINF obs. (converted)
Protocol: Male C57Bl/6J mice received Pin1-3 intravenously (as a 0.2 mg/ml solution in 5/5/90 NMP/Solutol/saline) or orally (as a 1 mg/ml solution in 5/5/90 NMP/Solutol/saline). The intravenous dosage was 2 mg/kg and the oral dosage was 10 mg/kg.

[2] = system: Pancreatic ductal adenocarcinoma (PDAC) cells; test: PDAC cell growth; format: cell-based, human; conditions: treated for 3 days
Protocol: Pancreatic ductal adenocarcinoma (PDAC) cells (derived from a human patient) were treated with Pin1-3 for 3 days. PDAC organoids were treated with Pin1-3 for 7 days (day 7 to day 14).

[3] = system: KPC mouse derived tumor cells; test: KPC orthotopic transplantation mouse model; format: in vivo, mice; conditions: IP 20 or 40 mg/kg every day
Protocol: 10^6 KPC (KrasLSL.G12D/+; p53R172H/+; PdxCretg/+) mouse derived tumor cells were transplanted into B6 mice pancreas (orthotopic transplantation). After 1 week of the transplantation, treatment of mice with Pin1-3 began. Mice were treated (IP) with Pin1-3 diluted solution (as a control), or 20 or 40 mg/kg every day. Tumor size was measured, and when the tumor size in control group reached 2 cm, mice were sacrificed to collect tumor tissue (n=4), and Kaplan-Meier survival analysis (n=8) was performed.

[4] = male, C57Bl/6J, mouse, in vivo, po, 10 mg/kg, oral 10 mg/kg, Avg. of 3 mice
[5] = male, C57Bl/6J, mouse, in vivo, po, 10 mg/kg, oral 10 mg/kg, individual mice No. 1-3
[6] = oral 10 mg/kg, individual mice No. 1-3, 10 mg/kg

Q: For `CC(C)(C)CN(C(=O)CCl)C1CCS(=O)(=O)C1` (stereo not drawn) [Pin1-3, 2-chloro-N-(sulfolan-3-yl)-N-neopentylacetamide], which Ki (GST-Pin1; FP assay, competition with fluorescein-labeled peptide, 250 nM GST-Pin1, read-out: Ki (apparent)) is on record?
A: Its Ki is 110 nM.

Q: What about the kinact (GST-Pin1; dose-dependent and time-dependent FP assay) of the same compound?
A: Its kinact is 0.0005 s⁻¹.

Q: And the kinact/KI (GST-Pin1; dose-dependent and time-dependent FP assay, read-out: Kinact/Ki (apparent))?
A: Its kinact/KI is 29000 M⁻¹ s⁻¹.

Q: And the “Concentration of full engagement of Pin1” value (Pin1 in IMR32 cells)?
A: Its value is 1 µM.

Q: And the AUC(0-t) [1, 4]?
A: Its AUC(0-t) is 9210 ng·h/mL and 32.8 µM·h.

Q: And the Tmax [1, 4]?
A: The Tmax was 25.2 min.

Q: And the half-life [1, 4]?
A: The half-life was 49.2 min.

Q: And the AUC(0-inf) [1, 4]?
A: The AUC(0-inf) was 9230 ng·h/mL.

Q: And the Cmax ([1]; male, C57Bl/6J, mouse, in vivo, po, 10 mg/kg, oral 10 mg/kg, Avg. of 3 mice, read-out: Cmax)?
A: The Cmax was 11.5 µM and 3220 ng/mL.

Q: What about the AUC(0-t) [1, 5] of the same compound?
A: The AUC(0-t) was 9590 ng·h/mL and 34.1 µM·h.

Q: What about the Tmax [1, 5] of the same compound?
A: Its Tmax is 15 min.

Q: What about the half-life [1, 5] of the same compound?
A: The half-life was 38.4 min.

Q: What about the AUC(0-inf) [1, 5] of the same compound?
A: Its AUC(0-inf) is 9600 ng·h/mL.

Q: What about the Cmax ([1]; male, C57Bl/6J, mouse, in vivo, po, 10 mg/kg, oral 10 mg/kg, individual mice No. 1-3, read-out: Cmax) of the same compound?
A: The Cmax was 4050 ng/mL and 14.4 µM.

Q: And the bioavailability ([1]; male, C57Bl/6J, mouse, in vivo, oral 10 mg/kg vs intravenous 2 mg/kg, Avg., read-out: F % (oral bioavailability))?
A: Its bioavailability is 30.4%.

Q: And the AUC % extrap. ([1]; oral 10 mg/kg, Avg. of 3 mice)?
A: Its AUC % extrap. is 0.24%.

Q: And the Cl obs. ([1]; oral 10 mg/kg, Avg. of 3 mice)?
A: Its Cl obs. is 18.15 mL/min/kg.

Q: What about the AUC % extrap. [1, 6] of the same compound?
A: Its AUC % extrap. is 0.03% and 0.32% and 0.38%.

Q: What about the AUCINF obs. [1, 6] of the same compound?
A: The AUCINF obs. was 498172 ng·min/mL and 587646 ng·min/mL.

Q: What about the AUClast [1, 6] of the same compound?
A: Its AUClast is 496559 min*ng/ml and 29.4 hr*μM and 585438 min*ng/ml and 34.7 hr*μM.

Q: What about the Cl obs. [1, 6] of the same compound?
A: Its Cl obs. is 17.37 mL/min/kg and 20.07 mL/min/kg and 17.02 mL/min/kg.

Q: What about the Cmax [1, 6] of the same compound?
A: Its Cmax is 2420 ng/mL and 3200 ng/mL.

Q: What about the T1/2 [1, 6] of the same compound?
A: Its T1/2 is 54.6 min and 55.2 min.

Q: And the Cmax ([1]; oral 10 mg/kg, individual mice No. 1-3, 10 mg/kg, read-out: Cmax)?
A: The Cmax was 8.61 µM and 11.4 µM.

Q: And the PDAC cell growth [2]?
A: The PDAC cell growth was “inhibited tumor growth of PDAC cells in a dose-dependent manner”.

Q: And the KPC tumor growth [3]?
A: Its KPC tumor growth is “inhibited KPC tumor growth”.

Q: And the “Survival (Kaplan-Meier)” value [3]?
A: Its value is “enhanced survival”.
